Laboratory results: ChEMBL document CHEMBL3885861, “Open TG-GATES”

Species on record: Rattus norvegicus
Assay: Open TG-GATES - Regimen: Daily Repeat
Type: toxicity, organism-based, Sprague-Dawley
Design: regimen Daily Repeat, gender Male, age 6 weeks
Conditions: in vivo, po, route gavage; for gamma-GTP / ALP / ALT / AST / BUN / CRE / Ca / DBIL / GLC / IP / K / LDH / Na / PL / RALB / TBIL / TC / TG / TP: tissue Plasma; for APTT / Bas / Eos / Fbg / Hb / Ht / Lym / MCH / MCHC / MCV / Mono / Neu / PT / Plat / RBC / Ret / WBC: tissue Blood; for KIDNEY_L / KIDNEY_R / KIDNEY_TOTAL: tissue Kidney; for LIVER: tissue Liver
[1] = 30 mg/kg, 72 h, dose level Middle, time 3 day
[2] = 30 mg/kg, […], dose level Middle, time 7 day
[3] = 30 mg/kg, […], dose level Middle, time 14 day
[4] = 30 mg/kg, […], dose level Middle, time 28 day

## CSc1ccc2c(c1)N(CCC1CCCCN1C)c1ccccc1S2 (stereo not drawn) [THIORIDAZINE]
10 mg/kg, […], dose level Low, time 28 day
  gamma-GTP: 1.4 IU/L
[1]
  TERMINAL_BW: 234.2 g
  APTT: 15.8 s
  Bas: 0%
  Eos: 1%
  Fbg: 219.8 mg/dL
  Hb: 14.1 g/dL
  Ht: 42.2%
  Lym: 79.6%
  MCH: 21.7 pg
  MCHC: 33.4%
  MCV: 64.9 fL
  Mono: 7%
  Neu: 12.6%
  PT: 11.9 s
  Plat: 110.7 x10_4/uL
  RBC: 651 x10_4/ul
  Ret: 8%
  WBC: 122.3 x10_2/uL
  KIDNEY_L: 1 g
  KIDNEY_R: 1.1 g
  KIDNEY_TOTAL: 2.1 g
  LIVER: 12.3 g
  ALP: 1002.8 IU/L
  ALT: 44 IU/L
  AST: 66.2 IU/L
  BUN: 19 mg/dL
  CRE: 0.5 mg/dL
  Ca: 11.3 mg/dL
  DBIL: 0.012 mg/dL
  GLC: 188 mg/dL
  IP: 9.3 mg/dL
  K: 4.9 meq/L
  LDH: 88.6 IU/L
  Na: 139 meq/L
  PL: 176.2 mg/dL
  RALB: 4.1 g/dL
  TBIL: 0.3 mg/dL
  TC: 92 mg/dL
  TG: 105.6 mg/dL
  TP: 6 g/dL
  gamma-GTP: 1.6 IU/L
[2]
  TERMINAL_BW: 271.1 g
  APTT: 15.4 s
  Bas: 0%
  Eos: 0.6%
  Fbg: 235.6 mg/dL
  Hb: 14.9 g/dL
  Ht: 44.8%
  Lym: 82.4%
  MCH: 21.1 pg
  MCHC: 33.2%
  MCV: 63.6 fL
  Mono: 5.8%
  Neu: 11%
  PT: 11.9 s
  RBC: 705.6 x10_4/ul
  Ret: 5.7%
  WBC: 139.8 x10_2/uL
  KIDNEY_L: 1.2 g
  KIDNEY_R: 1.2 g
  KIDNEY_TOTAL: 2.3 g
  LIVER: 13.7 g
  ALP: 818.4 IU/L
  ALT: 37.4 IU/L
  AST: 64.2 IU/L
  BUN: 17.8 mg/dL
  CRE: 0.5 mg/dL
  Ca: 11.3 mg/dL
  DBIL: 0.008 mg/dL
  GLC: 183.8 mg/dL
  IP: 8.6 mg/dL
  K: 4.8 meq/L
  LDH: 84.8 IU/L
  Na: 138.6 meq/L
  PL: 174 mg/dL
  RALB: 4.1 g/dL
  TBIL: 0.3 mg/dL
  TC: 88.4 mg/dL
  TG: 124.8 mg/dL
  TP: 6.1 g/dL
  gamma-GTP: 1.8 IU/L
[3]
  TERMINAL_BW: 301.4 g
  APTT: 16.2 s
  Bas: 0%
  Eos: 1%
  Fbg: 224.8 mg/dL
  Hb: 14.5 g/dL
  Ht: 41%
  Lym: 76.8%
  MCH: 22.1 pg
  MCHC: 37.1%
  MCV: 59.7 fL
  Mono: 8.4%
  Neu: 14.4%
  PT: 11.6 s
  Plat: 101.3 x10_4/uL
  RBC: 685.8 x10_4/ul
  Ret: 3.8%
  WBC: 148.2 x10_2/uL
  KIDNEY_L: 1.3 g
  KIDNEY_R: 1.3 g
  KIDNEY_TOTAL: 2.5 g
  LIVER: 14 g
  ALP: 731.4 IU/L
  ALT: 34.6 IU/L
  AST: 65.8 IU/L
  BUN: 16.4 mg/dL
  CRE: 0.5 mg/dL
  Ca: 10.5 mg/dL
  DBIL: 0.02 mg/dL
  GLC: 179.2 mg/dL
  IP: 7.9 mg/dL
  K: 4.8 meq/L
  LDH: 103.2 IU/L
  Na: 139.4 meq/L
  PL: 159.4 mg/dL
  RALB: 4.1 g/dL
  TBIL: 0.3 mg/dL
  TC: 77.6 mg/dL
  TG: 139.8 mg/dL
  TP: 6.2 g/dL
  gamma-GTP: 1 IU/L
[4]
  TERMINAL_BW: 394 g
  APTT: 18 s
  Bas: 0%
  Eos: 1%
  Fbg: 237.2 mg/dL
  Hb: 15.5 g/dL
  Ht: 46.8%
  Lym: 83%
  MCH: 19.6 pg
  MCHC: 33.3%
  MCV: 58.9 fL
  Mono: 5.8%
  PT: 11.9 s
  Plat: 106.6 x10_4/uL
  RBC: 795.4 x10_4/ul
  Ret: 5.4%
  WBC: 161 x10_2/uL
  KIDNEY_L: 1.4 g
  KIDNEY_R: 1.5 g
  KIDNEY_TOTAL: 2.9 g
  LIVER: 17.9 g
  ALP: 625.2 IU/L
  ALT: 39.8 IU/L
  AST: 66.2 IU/L
  BUN: 20.2 mg/dL
  CRE: 0.6 mg/dL
  Ca: 11 mg/dL
  DBIL: 0.002 mg/dL
  GLC: 183.2 mg/dL
  IP: 7.3 mg/dL
  K: 4.2 meq/L
  LDH: 152.2 IU/L
  Na: 140.2 meq/L
  PL: 159.4 mg/dL
  RALB: 4.2 g/dL
  TBIL: 0.3 mg/dL
  TC: 77.4 mg/dL
  TG: 122.6 mg/dL
  TP: 6.4 g/dL
  gamma-GTP: 1.6 IU/L
